Data taken from patent US8628754B2, “Highly efficient delivery of a large therapeutic mass aerosol” (Civitas Therapeutics, Inc., priority 2000, dated 2014).
Like-named read-outs stand apart in the source and are kept apart here. Values belong to the molecule of their own block, whether it stands above or below them.

What was measured:
[1] = oral gavage, 8 mg in saline with 1% methylcellulose, carbidopa pre-treatment, 0-30 min
[2] = tested on: rat model of Parkinson's disease; assay: Placing task; assay type: in vivo
[3] = tested on: rat model of Parkinson's disease; assay: Bracing task; assay type: in vivo
[4] = tested on: rat model of Parkinson's disease; assay: Rotation test; assay type: in vivo
[5] = tested on: rat model of Parkinson's disease; assay: Akinesia task; assay type: in vivo
[6] = Geometric diameter by RODOS dry powder disperser / HELOS laser diffraction; assay type: physicochemical
Text: The Applicants introduced the powders into and dispersed the powder through an orifice in the RODOS dry powder disperser at varying shear forces by manipulating the regulator pressure of the air stream used to break up the particles. The Applicants obtained the geometric size distribution from the HELOS laser diffractometer as the powder exited and recorded the median value. The data was summarized and plotted as the mass median geometric diameter (MMGD) against pressure.
To evaluate the deagglomeration properties of the three powders, Applicants introduced the powders into a RODOS dry powder disperser and varied the shear force in order to break up the particles by manipulating the regulator pressure of the air stream. Subsequently, following the manufacturer's instructions, Applicants obtained the geometric size distribution from the HELOS laser diffractometer and recorded the median value. The data was summarized and plotted as […] (MMGD) against pressure.
Particles of the present invention were further characterized by the following techniques. The primary geometric diameter was measured using a RODOS dry powder disperser (Sympatec, Princeton, N.J.) in conjunction with a HELOS laser diffractometer (Sympatec). Powder was introduced into the RODOS inlet and aerosolized by shear forces generated by a compressed air stream regulated at 4 bar. The aerosol cloud was subsequently drawn into the measuring zone of the HELOS, where it scattered light from a laser beam and produced a Fraunhofer diffraction pattern used to infer the particle size distribution.
Geometric diameter was determined using a laser diffraction technique (Alkermes SOP #MS-021-005). The equipment consists of a HELOS diffractometer and a RODOS disperser (Sympatec, Inc., Princeton, N.J.). The RODOS disperser applies a shear force to a sample of particles, controlled by the regulator pressure of the incoming compressed air. The dispersed particles travel through a laser beam where the resulting diffracted light pattern produced is collected by a series of detectors. […]

[7] = Aerodynamic diameter by AeroDisperser/Aerosizer (AeroBreather for emitted size); assay type: physicochemical; conditions: AIR inhaler at 30 L/min, FIG. 2B
Description: The primary aerodynamic diameter was measured using an AeroDisperser/Aerosizer (TSI Inc., Amherst, Mass.). The sample powder was aerosolized by an inlet air stream at 1 psi in the AeroDisperser and then accelerated to sonic velocity into the Aerosizer. The Aerosizer measures the time taken for each particle to pass between two fixed laser beams, which is dependent on the particle's inertia. The TOF (time of flight) measurements were subsequently converted into aerodynamic diameters using Stokes law.
The emitted aerodynamic diameter from the AIR inhaler was determined using the AeroBreather (TSI Inc., Amherst, Mass.) in conjunction with the Aerosizer (TSI, Inc.). The powder was aerosolized from the inhaler at 30 L/min into the AeroBreather chamber and allowed to settle into the Aerosizer.
Aerodynamic diameter was analyzed using the API AeroDisperser and Aerosizer (TSI, Inc., St. Paul, Minn.) following standard procedures (Alkermes SOP #MS-034-005). Sample powder was introduced and dispersed in the AeroDisperser and then accelerated through a nozzle in the Aerosizer. A direct time-of-flight measurement was made for each particle in the Aerosizer, which was dependent on the particle's inertia. The time-of-flight distribution was then translated into a mass-based aerodynamic particle size distribution using a force balance based on Stokes law.

[8] = Geometric diameter emitted from breath-activated inhaler (IHA/HELOS); assay type: physicochemical; conditions: 5 mg in size #2 capsule
Description: To further evaluate the ability of the three powders to emit from a simple, breath-activated inhaler, Applicants placed 5 mg of each powder in a size #2 methyl cellulose capsule and inserted the capsule into a breath-activated inhaler. It will be appreciated by those skilled in the art that the receptacle into which the powders are placed will depend on the type of inhaler selected. […] The same results were obtained from measurements of the aerodynamic diameter, with spray-dried particles emitting with very similar aerodynamic diameters as compared to the primary particles.
The geometric diameter emitted from the breath-activated inhaler was measured using an IHA accessory (Sympatec) with the HELOS laser diffractometer. The IHA adapter positions the DPI in front of the measuring zone and allows air to be pulled through the DPI which aerosolizes the powder. Vacuum was drawn at 30 L/min to disperse powder from the AIR inhaler and the geometric diameter was measured by Fraunhofer diffraction.

[9] = Tap density; assay type: physicochemical
Text: Tap density can be measured by using instruments known to those skilled in the art such as the Dual Platform Microprocessor Controlled Tap Density Tester (Vankel, N.C.). Tap density is a standard measure of the envelope mass density. Tap density can be determined using the method of USP Bulk Density and Tapped Density, United States Pharmacopia convention, Rockville, Md., 10th Supplement, 4950-4951, 1999. In another embodiment, the particles have a mass median geometric diameter (MMGD) greater than about 5 μm and preferably near to or greater than about 10 μm. In one embodiment, the particles have a MMGD greater than about 5 μm and ranging to about 30 μm. In another embodiment, the particles have a MMGD ranging from about 10 μm to about 30 μm.

time required to achieve maximum plasma concentration (insufflated rats): < 15 min
time required to achieve maximum plasma concentration (orally dosed rats): 15 to 60 min
time required to achieve maximum plasma concentration (pulmonary delivery route): ≤ 10 min
plasma levels of ketoprofen, insufflated versus oral group (t=5 min to t=60 min): significantly higher
plasma levels of ketoprofen, insufflated versus oral group (t=120 min and t=240 min): statistically equivalent
Molecule: CC(C(=O)O)c1cccc(C(=O)c2ccccc2)c1 (stereo not drawn) [Ketoprofen]

increase in blood levels of L-Dopa over time [1]: modest
Molecule: N[C@@H](Cc1ccc(O)c(O)c1)C(=O)O [L-Dopa]
difference in drug required to produce equivalent efficacy, oral versus pulmonary ([2]; doses normalized by body weight): ~10 fold
time of maximal effects ([2]; oral, 20 mg/kg): 60 min
time of peak performance ([2]; oral, 30 mg/kg): 1 to 2 h
time to improved performance with the impaired limb ([2]; oral, 30 mg/kg): ≤ 30 min
lowest dose with significant improvements ([2]; pulmonary): 0.5 mg
pulmonary dose with recovery comparable to 30 mg/kg given orally ([2]; pulmonary): 1 mg
time of peak benefits ([2]; pulmonary, highest dose tested): 15 to 30 min
time to significant improvements ([2]; pulmonary, highest dose tested): ≤ 10 min
effect on performance ([3]; oral, 20 mg/kg): slightly improved performance
time of maximal effects ([3]; oral, 30 mg/kg): ≤ 60 min
time to improved performance ([3]; oral, 30 mg/kg): ≤ 30 min
lowest dose with statistically significant improvements ([3]; pulmonary): 0.5 mg
time of peak benefits ([3]; pulmonary): 15 to 30 min
time to significant improvements ([3]; pulmonary): ≤ 10 min
rotation behavior without pre-treatment with carbidopa ([4]; data not shown): virtually eliminated
time of peak rotation levels ([4]; oral, 30 mg/kg): approximately 30 minutes
rotations during the first 10-15 minutes ([4]; oral, 30 mg/kg, carbidopa pre-treatment): < 5 rotations/animal
rotations relative to oral delivery within the first 10-15 minutes ([4]; pulmonary, 2 mg total): greater than 3 times
time of peak rotations ([4]; pulmonary, 2 mg total): 25 to 30 min
time of maximal effects ([5]; oral, 30 mg/kg): ≤ 60 min
time to improved performance ([5]; oral, 30 mg/kg): ≤ 30 min
lowest dose with statistically significant (p<0.05) improvements ([5]; pulmonary): 1.0 mg
time of peak benefits ([5]; pulmonary): 15 to 30 min
time to significant improvements ([5]; pulmonary): ≤ 10 min

primary particle size as measured by RODOS [6]: ~2 microns
Dg (geometric diameter) ([6]; RODOS/HELOS): 2.5 μm
state of powder exiting the RODOS orifice ([6]; pressures below 2 bars): aggregated state
emitted aerodynamic diameter compared to primary aerodynamic diameter [7]: much larger
geometric diameter emitted from the inhaler [8]: greater than 30 microns
ρ (tap density) [9]: 0.26 g/cc
Molecule: albuterol sulfate [Micronized Alb. Sulfate (1)]
